In ChEMBL document CHEMBL3046082, “Control of Rice Blast Disease by Submerged Treatment with SSF-126” (J Pestic Sci, 1997) one finds Drug uptake and Activity data, which are given here for one compound.

Series [1] concerns Leaf. The series is described as follows: Drug level in Oryza sativa (rice) plant leaf at 18 g/a after 10 days. Particulars: 240 h. The series is classed as ADME.
The subject of series [2] is Leaf. The series is described as follows: Drug level in Oryza sativa (rice) plant leaf at 18 g/a up to 42 days. It is filed as ADME. Conditions: 1008 h.
In another series the test system is Root. The series is described as follows: Drug level in Oryza sativa (rice) plant root at 18 g/a up to 42 days. The series is classed as ADME. Particulars: 1008 h.
Series [3] concerns Pyricularia oryzae. Briefly: Antifungal activity against Magnaporthe oryzae in fourth-leaf stage of rice plant assessed as appressorial formation at 9 g/a after 24 hr (reference value: 90.4 +/- 5.6%). It is filed as functional.
Series [4] has as its system Pyricularia oryzae. Briefly: Antifungal activity against Magnaporthe oryzae in fourth-leaf stage of rice plant assessed as appressorial formation at 18 g/a after 24 hr (reference value: 90.4 +/- 5.6%). It is filed as functional.
In series [5] the test system is Pyricularia oryzae. The series is described as follows: Antifungal activity against Magnaporthe oryzae in fourth-leaf stage of rice plant assessed as appressorial formation at 36 g/a after 24 hr (reference value: 90.4 +/- 5.6%). It is filed as functional.
Series [6] concerns Pyricularia oryzae. The series is described as follows: Antifungal activity against Magnaporthe oryzae in fourth-leaf stage of rice plant assessed as spore germination at 9 g/a after 24 hr (reference value: 97.2 +/- 2.7%). It is filed as functional.
Series [7] relates to Pyricularia oryzae. Briefly: Antifungal activity against Magnaporthe oryzae in fourth-leaf stage of rice plant assessed as spore germination at 18 g/a after 24 hr (reference value: 97.2 +/- 2.7%). The series is classed as functional.
The test system of series [8] is Pyricularia oryzae. The series is described as follows: Antifungal activity against Magnaporthe oryzae in fourth-leaf stage of rice plant assessed as spore germination at 36 g/a after 24 hr (reference value: 97.2 +/- 2.7%). The series is classed as functional.

Where only a bound is given, the exact number is not on record here.

As to `CNC(=O)/C(=N\OC)c1ccccc1Oc1ccccc1`, the Drug uptake in the series on Leaf [1] is on record as 20 ppm; in the series with Leaf [2], under 2 ppm; with Root, under 2 ppm. Also, the Activity in the series with Pyricularia oryzae [3] came to 92.2%; in the series on Pyricularia oryzae [4], 91.2%; in the series with Pyricularia oryzae [5], 91.9%; in the series on Pyricularia oryzae [6] it was 97.1%; in the series with Pyricularia oryzae [7] it was 96.5%; with Pyricularia oryzae [8], 96.4%.
